{"source": "patent US20260224547A1", "about": "“COMPOSITIONS COMPRISING ANATABINE AND USES THEREOF” (Philip Morris Products S.A., priority 2021, published 2026)", "key": {"[1]": {"tested_on": "HEK-293, SH-SY5Y, primary human keratinocytes, THP-1 differentiated with PMA", "assay": "Cell viability, CellTiterGlo (ATP content), used to select concentrations", "format": "cell-based", "conditions": "24 hours of exposure; no more than 400 μM anatabine free base"}, "NRF2 reporter cells": {"tested_on": "NRF2 reporter cells", "assay": "Cell viability measured with ATP assay alongside NRF2 translocation (FIG. 4 to 7)", "excerpt": "FIGS. 5A to 5C: bar and line graphs showing NRF2 translocation presented as log 2 fold change compared to vehicle control (bars) and cell viability measured with ATP assay and presented as a percentage of the vehicle control (line) for anatabine (FIG. 5A), dimethyl fumarate (AlfaAesar) (FIG. 5B), and nornicotine (FIG. 5C).\nFIGS. 6A to 6C: bar graphs showing NRF2 translocation presented as log 2 fold change compared to vehicle control (bars) and cell viability measured with ATP assay and presented as a percentage of the vehicle control (line) for anatabine (FIG. 6A), dimethyl fumarate (Sigma) (FIG. 6B), and sulforaphane (FIG. 6C).\nFIGS. 7A and […]: bar graphs showing NRF2 translocation presented as log 2 fold change compared to vehicle control (bars) and cell viability measured with ATP assay and presented as a percentage of the vehicle control (line) for cotinine (FIG. 7A) and nicotine (FIG. 7B)."}}}
{"compound": "C1=CCC(c2cccnc2)NC1", "note": "(racemic) [anatabine, 1,2,3,6-Tetrahydro-2,3′-bipyridine]", "values": [{"measurement": "cell viability (ATP content vs medium-only control)", "setting": "[1]", "value": "≥ 80", "unit": "%"}, {"measurement": "cell viability, percentage of the vehicle control", "setting": "NRF2 reporter cells; 250 μM", "value": "above 85%"}, {"measurement": "cell viability, percentage of the vehicle control", "setting": "NRF2 reporter cells; 500 μM", "value": "above 85%"}, {"measurement": "cell viability at higher concentrations", "setting": "NRF2 reporter cells; higher concentrations of the tested range", "value": "high cell viability"}]}
